Experimental data: patent publication US20100298141A1, “SUBSTITUTED PYRIDINE N-OXIDE HERBICIDES” (E. I. DU PONT DE NEMOURS AND COMPANY, priority 2007, published 2010)

Columns and labels:
barnyardgrass [1] = assay: Test A pre-/postemergence greenhouse test; assay type: in vivo, Echinochloa crus-galli; settings: for Plant response rating, Barnyardgrass: 0 to 100 scale where 0 is no effect and 100 is complete control; for Barnyardgrass plant response rating: 0 to 100 scale
Procedure, shortened: (§1)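 Seeds sown in a loam soil–sand blend got a preemergence directed soil spray of compound in a non-phytotoxic solvent mixture containing surfactant. Postemergence sprays of the same formulation went at the same time onto plants 2–10 cm tall at the one- to two-leaf stage. Injury was scored visually against untreated controls after about ten days in the greenhouse.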

crabgrass [2] = assay: Test A pre-/postemergence greenhouse test; assay type: in vivo, Digitaria sanguinalis; settings: for Plant response rating, Crabgrass, Large: 0 to 100 scale where 0 is no effect and 100 is complete control; for Crabgrass, Large plant response rating: 0 to 100 scale
Procedure, shortened: as §1

giant foxtail = assay: Test A pre-/postemergence greenhouse test; assay type: in vivo, Setaria faberi; settings: for Plant response rating, Foxtail, Giant: 0 to 100 scale where 0 is no effect and 100 is complete control; for Foxtail, Giant plant response rating: 0 to 100 scale
Procedure, shortened: as §1

morningglory = assay: Test A pre-/postemergence greenhouse test; assay type: in vivo, Ipomoea spp.; settings: for Plant response rating, Morningglory: 0 to 100 scale where 0 is no effect and 100 is complete control; for Morningglory plant response rating: 0 to 100 scale
Procedure, shortened: as §1

Italian ryegrass = assay: Test C pre-/postemergence test; assay type: in vivo, Lolium multiflorum; settings: for Ryegrass, Italian plant response rating: preemergence, scale 0 (no effect) to 100 (complete control)
Procedure, shortened: (§2)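 Compounds in a non-phytotoxic solvent with surfactant applied preemergence to seeded pots and, at the same time, postemergence to plants 2–18 cm tall (1- to 4-leaf stage). Paddy tests: pots flooded to 3 cm, compound applied into the water, depth held throughout.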

bermudagrass = assay: Test C pre-/postemergence test; assay type: in vivo, Cynodon dactylon
Procedure, shortened: as §2

Surinam grass = assay: Test C pre-/postemergence test; assay type: in vivo, Brachiaria decumbens; settings: for Plant response rating (0 to 100), Surinam Grass: Postemergence
Procedure, shortened: as §2

cocklebur = assay: Test C pre-/postemergence test; assay type: in vivo, Xanthium strumarium
Procedure, shortened: as §2

crabgrass [3] = assay: Test C pre-/postemergence test; assay type: in vivo, Digitaria sanguinalis
Procedure, shortened: as §2

Goosegrass = assay: Test C pre-/postemergence test; assay type: in vivo, Eleusin indica
Procedure, shortened: as §2

kochia = assay: Test C pre-/postemergence test; assay type: in vivo, Kochia scoparia
Procedure, shortened: as §2

lambsquarters = assay: Test C pre-/postemergence test; assay type: in vivo, Chenopodium album; settings: for Lambsquarters plant response rating: preemergence, scale 0 (no effect) to 100 (complete control)
Procedure, shortened: as §2

pigweed = assay: Test C pre-/postemergence test; assay type: in vivo, Amaranthus retroflexus; settings: for Plant response rating (0 to 100), Pigweed / Plant response rating, Pigweed: Postemergence; for Plant response rating, Pigweed: scale 0 to 100, 0 no effect, 100 complete control
Procedure, shortened: as §2

soybean = assay: Test C pre-/postemergence test; assay type: in vivo, Glycine max
Procedure, shortened: as §2

[4] = system: common (oilseed) sunflower; assay: Test C pre-/postemergence test; assay type: in vivo, Helianthus annuus
Procedure, shortened: as §2

umbrella sedge = assay: Test C flooded paddy test; assay type: in vivo, Cyperus difformis; settings: Flood
Procedure, shortened: (§3)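 Test compounds are applied straight into paddy water held 3 cm above the soil surface, with that flood maintained for the whole test. After 13 to 15 days in the greenhouse, each species is scored visually relative to controls.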

barnyardgrass [5] = assay: Test C flooded paddy test; assay type: in vivo, Echinochloa crus-galli; settings: Flood
Procedure, shortened: as §3

[6] = Postemergence, 500 g ai/ha, 0 is no effect, 100 is complete control
[7] = Preemergence, 125 g ai/ha, 0 no effect, 100 complete control
[8] = Postemergence, 125 g ai/ha, scale 0 to 100, 0 no effect, 100 complete control
[9] = Postemergence, 250 g ai/ha, scale 0 to 100, 0 no effect, 100 complete control
[10] = Preemergence, 31 g ai/ha, scale 0 to 100 (0 no effect, 100 complete control)
[11] = 125 g ai/ha, preemergence, scale 0 (no effect) to 100 (complete control)
[12] = preemergence, 250 g ai/ha, scale 0 (no effect) to 100 (complete control)
[13] = 62 g ai/ha, Preemergence, scale 0 to 100
[14] = 62 g ai/ha, scale 0 to 100 (0 no effect, 100 complete control)
[15] = 250 g ai/ha, scale 0 to 100, 0 no effect, 100 complete control, 13 to 15 days

CC(Oc1c(CS(=O)(=O)c2cccc[n+]2[O-])c(C(F)(F)F)nn1C)C(F)(F)F (stereo not drawn) [Compound 82]
50: Morningglory plant response rating (morningglory; [6]) | Sunflower plant response rating [4, 12]
20: Plant response rating, Soybean (soybean; [9])
0: Plant response rating (0 to 100), Ryegrass, Italian (Italian ryegrass; Postemergence, 31 g ai/ha) | Plant response rating (0 to 100), Ryegrass, Italian (Italian ryegrass; Postemergence, 62 g ai/ha) | Plant response rating (0 to 100), Bermudagrass (bermudagrass; Postemergence, 31 g ai/ha) | Plant response rating (0 to 100), Bermudagrass (bermudagrass; Postemergence, 62 g ai/ha) | Plant response rating, Bermudagrass (bermudagrass; [8]) | Plant response rating, Bermudagrass (bermudagrass; [9]) | Plant response rating (0 to 100), Surinam Grass (Surinam grass; 31 g ai/ha) | Plant response rating (0 to 100), Surinam Grass (Surinam grass; 62 g ai/ha) | Cocklebur plant response rating (cocklebur; [13]) | Cocklebur plant response rating (cocklebur; [11]) | Plant response rating (0 to 100), Cocklebur (cocklebur; Postemergence, 31 g ai/ha) | Plant response rating (0 to 100), Cocklebur (cocklebur; Postemergence, 62 g ai/ha) | Plant response rating, Cocklebur (cocklebur; [8]) | Plant response rating, Cocklebur (cocklebur; [9]) | Plant response rating, Cocklebur (cocklebur; [10]) | Cocklebur plant response rating (cocklebur; [12]) | Plant response rating (0 to 100), Crabgrass, Large (crabgrass [3]; Postemergence, 31 g ai/ha) | Plant response rating (0 to 100), Crabgrass, Large (crabgrass [3]; Postemergence, 62 g ai/ha) | Plant response rating, Crabgrass, Large (crabgrass [3]; [8]) | Plant response rating (0 to 100), Goosegrass (Goosegrass; Postemergence, 31 g ai/ha) | Plant response rating (0 to 100), Goosegrass (Goosegrass; Postemergence, 62 g ai/ha) | Plant response rating (0 to 100), Kochia (kochia; Postemergence, 31 g ai/ha) | Plant response rating (0 to 100), Kochia (kochia; Postemergence, 62 g ai/ha) | Plant response rating, Kochia (kochia; [8]) | Plant response rating, Kochia (kochia; [9]) | Lambsquarters plant response rating (lambsquarters; 125 g ai/ha) | Plant response rating (0 to 100), Lambsquarters (lambsquarters; Postemergence, 31 g ai/ha) | Plant response rating (0 to 100), Lambsquarters (lambsquarters; Postemergence, 62 g ai/ha) | Plant response rating, Lambsquarters (lambsquarters; [9]) | Plant response rating (0 to 100), Pigweed (pigweed; 31 g ai/ha) | Plant response rating (0 to 100), Pigweed (pigweed; 62 g ai/ha) | Plant response rating, Pigweed (pigweed; 125 g ai/ha) | Plant response rating (0 to 100), Soybean (soybean; Postemergence, 31 g ai/ha) | Plant response rating (0 to 100), Soybean (soybean; Postemergence, 62 g ai/ha) | Plant response rating, Soybean (soybean; [8]) | Plant response rating, Soybean (soybean; [10]) | Sunflower plant response rating [4, 13] | Plant response rating, Sunflower [4, 10] | Plant response rating, Barnyardgrass (barnyardgrass [5]; [14])
70: Plant response rating, Barnyardgrass (barnyardgrass [1]; Postemergence, 125 g ai/ha) | Plant response rating, Surinam Grass (Surinam grass; [10]) | Soybean plant response rating (soybean; [12])
75: Plant response rating, Ryegrass, Italian (Italian ryegrass; [10])
45: Sunflower plant response rating [4, 11]
98: Crabgrass, Large plant response rating (crabgrass [3]; [11])
60: Morningglory plant response rating (morningglory; [7])
10: Plant response rating, Crabgrass, Large (crabgrass [3]; [9]) | Plant response rating, Goosegrass (Goosegrass; [8]) | Plant response rating, Pigweed (pigweed; 250 g ai/ha)
80: Barnyardgrass plant response rating (barnyardgrass [1]; [6]) | Plant response rating, Crabgrass, Large (crabgrass [2]; Postemergence, 125 g ai/ha) | Crabgrass, Large plant response rating (crabgrass [2]; [7]) | Ryegrass, Italian plant response rating (Italian ryegrass; 125 g ai/ha) | Surinam Grass plant response rating (Surinam grass; [13]) | Plant response rating, Barnyardgrass (barnyardgrass [5]; [15])
85: Plant response rating, Ryegrass, Italian (Italian ryegrass; [8]) | Crabgrass, Large plant response rating (crabgrass [3]; [13]) | Plant response rating, Crabgrass, Large (crabgrass [3]; [10]) | Pigweed plant response rating (pigweed; [13])
30: Soybean plant response rating (soybean; [13])
90: Barnyardgrass plant response rating (barnyardgrass [1]; [7]) | Crabgrass, Large plant response rating (crabgrass [2]; [6]) | Plant response rating, Foxtail, Giant (giant foxtail; Postemergence, 125 g ai/ha) | Foxtail, Giant plant response rating (giant foxtail; [6]) | Plant response rating, Ryegrass, Italian (Italian ryegrass; [9]) | Surinam Grass plant response rating (Surinam grass; [11]) | Surinam Grass plant response rating (Surinam grass; [12]) | Plant response rating, Goosegrass (Goosegrass; [10])
100: Plant response rating, Barnyardgrass (barnyardgrass [1]; Preemergence, 500 g ai/ha) | Plant response rating, Crabgrass, Large (crabgrass [2]; Preemergence, 500 g ai/ha) | Foxtail, Giant plant response rating (giant foxtail; [7]) | Plant response rating, Foxtail, Giant (giant foxtail; Preemergence, 500 g ai/ha) | Plant response rating, Morningglory (morningglory; Preemergence, 500 g ai/ha) | Ryegrass, Italian plant response rating (Italian ryegrass; 250 g ai/ha) | Bermudagrass plant response rating (bermudagrass; 62 g ai/ha, Preemergence, scale 0 to 100 (0 no effect, 100 complete control)) | Bermudagrass plant response rating (bermudagrass; [11]) | Plant response rating, Bermudagrass (bermudagrass; [10]) | Bermudagrass plant response rating (bermudagrass; [12]) | Crabgrass, Large plant response rating (crabgrass [3]; [12]) | Goosegrass plant response rating (Goosegrass; [13]) | Goosegrass plant response rating (Goosegrass; [11]) | Goosegrass plant response rating (Goosegrass; [12]) | Kochia plant response rating (kochia; [13]) | Kochia plant response rating (kochia; [11]) | Plant response rating, Kochia (kochia; [10]) | Kochia plant response rating (kochia; [12]) | Lambsquarters plant response rating (lambsquarters; 250 g ai/ha) | Pigweed plant response rating (pigweed; [11]) | Pigweed plant response rating (pigweed; [12]) | Plant response rating, Sedge, Umbrella (umbrella sedge; [14]) | Plant response rating, Sedge, Umbrella (umbrella sedge; [15])
40: Plant response rating, Morningglory (morningglory; Postemergence, 125 g ai/ha) | Plant response rating, Goosegrass (Goosegrass; [9])
